Laboratory results taken from patent publication US20230102590A1, “USE OF POLYETHER COMPOUND” (Senju Pharmaceutical Co., Ltd., priority 2020, published 2023).
Where two headings read alike, the source gives them in different places.

Key:
[1] = Procedure: Fujifilm Wako Pure Chemical
The poorly soluble compound content in the recovered filtrate was measured by liquid chromatography specified below (Shimadzu (Kyoto), high performance liquid chromatograph Prominence).
As the standard product of triamcinolone acetonide, a reagent from the Pharmaceutical and Medical Device Regulatory Science Society of Japan (Japan) was used. • 50 μL of sample solution and standard solution was measured by liquid chromatography under the following conditions.
Column temperature: constant temperature of about 40° C. Mobile phase A: 0.1% trifluoroacetic acid/10% acetonitrile solution Mobile phase B: 0.1% trifluoroacetic acid/90% acetonitrile solution Delivery of mobile phase: the ratio of mixture of mobile phase A and mobile phase B was changed as follows to control the linear concentration gradient.
Detergent: 50% acetonitrile solution Flow rate: 1.0 mL/min Temperature within autosampler: 5° C.
The following conditions were tested as additives to a poorly soluble compound
wherein SA+B=solubility of a poorly soluble compound in a composition comprising poloxamer 407 and PEG 4000 SB=solubility of a poorly soluble compound in a composition comprising PEG 4000, but not poloxamer 407 SA=solubility of a poorly soluble compound in a composition comprising poloxamer 407, but not PEG 4000 S0=solubility of a poorly soluble compound in a composition that comprises neither poloxamer 407 nor PEG 4000.
The solubility in a composition of PEG and poloxamer was measured in the same manner described above for additional compounds.
For cabozantinib and telmisartan, the pH of the aqueous solution with the base composition described above was changed to 7.4. For rebamipide, the aqueous solution with the base composition was as follow. • 0.05% sodium hydrogen phosphate hydrate • 0.45% sodium dihydrogen phosphate hydrate • sodium hydroxide and hydrochloric acid (suitable amount was added to adjust the pH to 6.0)
Additional compounds were measured in the same manner described above.
Cabozantinib and telmisartan were tested with a solution adjusted to a pH of 7.4. Rebamipide was tested with a solution adjusted to a pH of 6.0. Other compounds were tested with a solution adjusted to a pH of 7.0.

[2] = Basic solubility at 25° C. in ethanol, PEG 400, propylene glycol (PG) and buffer solution; solubility ratio non-aqueous solvent / buffer solution; settings: for Solubility, Buffer solution: phosphate buffer pH 7.0
Procedure: In this regard, the buffer solution had the following composition: • 0.2% sodium hydrogen phosphate hydrate • 0.3% sodium dihydrogen phosphate hydrate • sodium hydroxide and hydrochloric acid (suitable amount was added to adjust the pH to 7.0; however, pH was adjusted to 7.4 for cabozantinib and telmisartan).
However, the following composition was used for rebamipide instead: • 0.05% sodium hydrogen phosphate hydrate • 0.45% sodium dihydrogen phosphate hydrate • sodium hydroxide and hydrochloric acid (suitable amount was added to adjust the pH to 6.0).
Each compound was measured in the same manner described above. In the Table, the molecular weight and Log P values are reference values (or values calculated from reference values).

[3] = reference values; pH upon measurement: rebamipide pH 7.0, telmisartan pH 7.4, cilostazol pH 7.0, aprepitant pH 7, cabozantinib pH 7.4; cited from earlier work
[4] = Stability test: change in pH of poloxamer and/or polyethylene glycol solutions stored at 60° C. for four weeks; settings: for concentration of additive able to stabilize PEG 4000 / concentration of additive able to stabilize poloxamer 407 / stabilization of poloxamer 407 or PEG 4000 by the additive alone: pH change
Procedure: An additional component was added to an aqueous solution comprising poloxamer and/or polyethylene glycol, and the change in the viscosity and pH was measured over time under harsh conditions of 60° C. The following were used as the poloxamer, polyethylene glycol, and buffer. • Poloxamer 407 (Kolliphor P 407, BASF, Germany) • PEG 4000 (Macrogol 4000, NOF, Tokyo) • Buffer: 0.9% boric acid, 0.1% borax
The pH was adjusted with hydrochloric acid or sodium hydroxide. […] A polyethylene eye drop bottle was filled with 5 mL of each filtrate and stored in a 60° C. thermostatic vessel. The pH and viscosity of the test solutions as of preparation and at four weeks after storage were measured. The viscosity was measured using a rotational viscometer (Toki Sangyo (Osaka) Model TVE-25 viscometer type L, 25° C., 100 rpm). The pH as of the preparation was measured in the test solution before transferring to an eye drop bottle for storage.

[5] = 25° C., buffer pH 7.0 (pH 7.4 for cabozantinib and telmisartan; pH 6.0 for rebamipide)

Structure (SMILES) | Solubility scale factor at 5° C. 30% PEG 4000/10% poloxamer 407 [1] | Solubility scale factor at 15° C. 30% PEG 4000/10% poloxamer 407 [1] | Solubility ratio of solvent with respect to buffer solution Ethanol/buffer solution [2, 5] | Solubility ratio of solvent with respect to buffer solution PEG400/buffer solution [2, 5] | Solubility ratio of solvent with respect to buffer solution PG/buffer solution [2, 5] | other results
Brc1cccc2c1oc1ccccc12 [4-bromadibenzofuran] | 793.72 | 1.61 | 426955.49 | 1693721.20 | 106519.51 | –
Brc1cccc2c1oc1ccccc12 [4-bromodibenzofuran] | – | – | – | – | – | state of the test composition [1]: converted into gel
C[C@@H](O[C@H]1OCCN(Cc2n[nH]c(=O)[nH]2)[C@H]1c1ccc(F)cc1)c1cc(C(F)(F)F)cc(C(F)(F)F)c1 [Aprepitant] | 1377.77 | 236.00 | 129308.39 | 60601.21 | 43995.44 | Solubility, Ethanol [2]: 2.483%; Log P [3]: 4.8 ± 0.1
COc1cc2nccc(Oc3ccc(NC(=O)C4(C(=O)Nc5ccc(F)cc5)CC4)cc3)c2cc1OC [Cabozantinib] | 288.38 | 74.57 | 1949439.39 | 25935652.78 | 1213400.25 | Log P [3]: 3.92
Cc1ccc(-c2cc(C(F)(F)F)nn2-c2ccc(S(N)(=O)=O)cc2)cc1 [Cel ? coxib] | 686.99 | 183.33 | 80774.38 | 371931.96 | 28507.07 | –
Cc1ccc(-c2cc(C(F)(F)F)nn2-c2ccc(S(N)(=O)=O)cc2)cc1 [Celecoxib] | – | – | – | – | – | Solubility, Ethanol ([2]; 25° C.): 10.24%
CC1(C)O[C@@H]2C[C@H]3[C@@H]4CCC5=CC(=O)C=C[C@]5(C)[C@H]4[C@@H](O)C[C@]3(C)[C@]2(C(=O)CO)O1 [Desonide] | 7.59 | 6.73 | 270.67 | 143.78 | 174.69 | Solubility, PEG400 ([2]; 25° C.): 1.031%; Solubility, PG (propylene glycol) ([2]; 25° C.): 1.253%; Solubility, Buffer solution ([2]; 25° C.): 0.007171%
O=C(O)CN(CCN(CC(=O)O)CC(=O)O)CC(=O)O [EDTA, ethylenediaminetetraacetic acid] | – | – | – | – | – | stabilization effect on low molecular weight PEG 400 ([4]; 0.1% additive): exhibited a stabilization effect; amount of PEG 4000 that the additive was able to stabilize ([4]; 0.1% additive, four weeks at 60° C.): up to 20%; concentration of additive able to stabilize PEG 4000 ([4]; four weeks at 60° C.): ≥ 0.1%; concentration of additive able to stabilize poloxamer 407 ([4]; four weeks at 60° C.): 0.01%
O=C1Nc2ccc(Cl)cc2[C@@](C#CC2CC2)(C(F)(F)F)O1 [Efavir ? nt] | 14.23 | 1.97 | 101607.44 | 96901.18 | 66368.13 | –
COC(=O)Nc1nc2cc(C(=O)c3ccc(F)cc3)ccc2[nH]1 [Flubendazole] | 24.46 | 12.41 | 745.67 | 5882.38 | 1401.17 | Solubility, Ethanol [2]: 0.007308%
COC1=CC(=O)C[C@@H](C)[C@]12Oc1c(Cl)c(OC)cc(OC)c1C2=O [Griseofulvin] | 15.19 | 14.31 | 309.31 | 1745.29 | 200.23 | Solubility, Ethanol ([2]; 25° C.): 0.2423%; Solubility, PEG400 ([2]; 25° C.): 1.367%; Solubility, PG (propylene glycol) ([2]; 25° C.): 0.1569%; Solubility, Buffer solution ([2]; 25° C.): 0.0007834%
CCC(C)n1ncn(-c2ccc(N3CCN(c4ccc(OCC5COC(Cn6cncn6)(c6ccc(Cl)cc6Cl)O5)cc4)CC3)cc2)c1=O (stereo not drawn) [Itraconazole] | – | – | – | – | – | Solubility, Buffer solution ([2]; 25° C.): below the detection limit
OC[C@@H](O)[C@@H](O)[C@H](O)[C@H](O)CO [Mannitol] | – | – | – | – | – | stabilization of poloxamer 407 or PEG 4000 by the additive alone ([4]; four weeks at 60° C.): could not stabilize poloxamer 407 or PEG 4000
Cc1cn(-c2cc(NC(=O)c3ccc(C)c(Nc4nccc(-c5cccnc5)n4)c3)cc(C(F)(F)F)c2)cn1 [Nilotinib] | 144.99 | 31.62 | – | – | – | Solubility ratio of solvent with respect to buffer solution Ethanol/buffer solution [2]: 1623663.73; Solubility ratio of solvent with respect to buffer solution PEG400/buffer solution [2]: 7100339.79; Solubility ratio of solvent with respect to buffer solution PG/buffer solution [2]: 1437221.83
CNC(=O)c1cc(Oc2ccc(NC(=O)Nc3ccc(Cl)c(C(F)(F)F)c3)c(F)c2)ccn1 [Regorafenib] | 182.78 | 114.87 | 2004388.60 | 7691626.26 | 1186517.97 | Solubility, Buffer solution ([2]; 25° C.): 0.0000004174%
C=C(C)[C@H]1Cc2c(ccc3c2O[C@@H]2COc4cc(OC)c(OC)cc4[C@@H]2C3=O)O1 [Rotenone] | – | – | 30294.14 | 368226.98 | 13159.33 | Solubility, PEG400 ([2]; 25° C.): 3.314%; Solubility, PG (propylene glycol) ([2]; 25° C.): 0.1184%
O=S([O-])([O-])=S.[Na+].[Na+] [Sodium thiosulfate] | – | – | – | – | – | concentration of additive able to stabilize PEG 4000 ([4]; four weeks at 60° C.): 0.01%; concentration of additive able to stabilize poloxamer 407 ([4]; four weeks at 60° C.): 0.03%
CNC(=O)c1cc(Oc2ccc(NC(=O)Nc3ccc(Cl)c(C(F)(F)F)c3)cc2)ccn1 [Soraf ? nib] | 2355.97 | 450.47 | 4781694.68 | 7210696.23 | 4473505.75 | –
CC1(C)O[C@@H]2C[C@H]3[C@@H]4CCC5=CC(=O)C=C[C@]5(C)[C@@]4(F)[C@@H](O)C[C@]3(C)[C@]2(C(=O)CO)O1 [Triamsinolone acetonide] | 7.32 | 7.52 | 1043.62 | 876.48 | 680.05 | –
C[C@@H]1C[C@H]2[C@@H]3CCC4=CC(=O)C=C[C@]4(C)[C@@]3(F)[C@@H](O)C[C@]2(C)[C@@]1(O)C(=O)CO [dexamethasone] | 7.45 | 7.10 | – | – | – | Solubility, Buffer solution ([2]; 25° C.): 0.008221%
O=S([O-])S(=O)(=O)[O-].[Na+].[Na+] [sodium pyrosulfite] | – | – | – | – | – | stabilization of poloxamer 407 or PEG 4000 by the additive alone ([4]; four weeks at 60° C.): could not stabilize poloxamer 407 or PEG 4000
O=S([O-])[O-].[Na+].[Na+] [sodium sulfite] | – | – | – | – | – | stabilization of poloxamer 407 or PEG 4000 by the additive alone ([4]; four weeks at 60° C.): could not stabilize poloxamer 407 or PEG 4000
CC1(C)O[C@@H]2C[C@H]3[C@@H]4CCC5=CC(=O)C=C[C@]5(C)[C@@]4(F)[C@@H](O)C[C@]3(C)[C@]2(C(=O)CO)O1 [triamcinolone acetonide] | – | – | – | – | – | Solubility, Buffer solution ([2]; 25° C.): 0.001426%
